Reference: patent publication US11014884B2 (Global Blood Therapeutics, Inc., priority 2018, dated 2021)

Molecular target: T1, hemoglobin (Homo sapiens, UniProt P69905)
T1 construct: from tissue; host or cells: whole blood (red blood cells)
Assay: Whole blood assay: oxygen equilibrium curves (Hemox Analyzer), change in p50
Assay type: cell-based
Conditions: whole blood 20% Hct (1 mM Hb), compound 1 mM, equimolar to hemoglobin, 1 h at 37° C.
Experimental: Oxygen equilibrium curves (OECs) were collected using a TCS Hemox Analyzer (TCS Scientific Company, New Hope, Pa., USA) to measure changes in the binding affinity of 02 to Hb. Whole blood was incubated for 1 h at 37° C. with the indicated compounds in an equimolar ratio of hemoglobin to compound and diluted into TES (2-[[1,3-dihydroxy-2-(hydroxymethyl)propan-2-yl]amino]ethanesulfonic acid)/saline buffer prior to measurements. For example, for whole blood at 20% hematocrit [Hct], which corresponds to 1 mM Hb, a compound concentration of 1 mM was used (for example, for compounds 1-53), and the incubated sample diluted 50- to 100-fold. The concentration for compound 54 was 1.7 mM and in equimolar ratio to hemoglobin. The diluted samples were then oxygenated with compressed air within the Hemox Analyzer, and the OECs were collected during deoxygenation as previously described (Guarnone et al., Haematologica, 1995, 80, 426-430). p50 (partial pressure of 02 at which Hb is 50% saturated with 02) values were obtained using a non-linear regression analysis. Percentage change in p50 [Δp50(%)] was calculated as follows: Δp50(%)=[(p50 of control)−p50 with compound)/p50 control]×100.

T1 sequence (P69905 2-142 limits assumed): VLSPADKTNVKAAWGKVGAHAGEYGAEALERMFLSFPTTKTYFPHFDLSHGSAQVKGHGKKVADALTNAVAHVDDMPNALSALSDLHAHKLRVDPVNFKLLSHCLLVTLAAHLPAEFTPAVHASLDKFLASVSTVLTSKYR
T1 sequence (P68871 2-147 partner limits assumed): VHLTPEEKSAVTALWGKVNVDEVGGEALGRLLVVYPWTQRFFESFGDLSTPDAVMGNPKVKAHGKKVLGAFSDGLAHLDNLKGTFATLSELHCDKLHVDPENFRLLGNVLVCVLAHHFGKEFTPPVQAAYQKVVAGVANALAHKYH

| Structure (SMILES) | Delta-p50 (%) |
| --- | --- |
| O=Cc1ncccc1C(=O)N1CCCC[C@H]1COc1cccc(O)c1C=O [Compound 25, 3-[(2S)-2-[(2-formyl-3-hydroxyphenoxy)methyl]piperidine-1-carbonyl]pyridine-2-carbaldehyde] | 4% |
| O=Cc1ccc(Cl)cc1C(=O)N1CCCC[C@H]1COc1cccc(O)c1C=O [Compound 16, 4-chloro-2-[(2S)-2-[(2-formyl-3-hydroxyphenoxy)methyl]piperidine-1-carbonyl]benzaldehyde] | 39% |
| O=Cc1ccccc1C(=O)N1CCC[C@H](COc2cccc(O)c2C=O)C1 [Compound 29, 2-{[(3S)-1-(2-formylbenzoyl)piperidin-3-yl]methoxy}-6-hydroxybenzaldehyde] | 82% |
| O=Cc1c(O)cccc1C(=O)N1CCCC[C@H]1COc1ccc2c(c1C=O)CCO2 [Compound 44, 5-{[(2S)-1-(2-formyl-3-hydroxybenzoyl)piperidin-2-yl]methoxy}-2,3-dihydro-1-benzofuran-4-carbaldehyde] | 34.2% |
| CCOc1ccc(-c2ncccc2COc2cccc(O)c2C=O)nc1C=O [Compound 45, 5-ethoxy-3′-[(2-formyl-3-hydroxyphenoxy)methyl]-[2,2′-bipyridine]-6-carbaldehyde] | 55.7% |
| O=Cc1cccc(-c2cnccc2COc2cccc(O)c2C=O)n1 [Compound 31, 4′-[(2-formyl-3-hydroxyphenoxy)methyl]-[2,3′-bipyridine]-6-carbaldehyde] | 3.5% |
| O=Cc1nc(-c2ncccc2COc2cccc(O)c2C=O)ccc1O [Compound 19, 3′-[(2-formyl-3-hydroxyphenoxy)methyl]-5-hydroxy-[2,2′-bipyridine]-6-carbaldehyde] | 11% |
| CCOc1cccc(C(=O)N2CCC[C@H]2COc2cccc(O)c2C=O)c1C=O [Compound 52, 2-ethoxy-6-[(2S)-2-[(2-formyl-3-hydroxyphenoxy)methyl]pyrrolidine-1-carbonyl]benzaldehyde] | 75.5% |
| O=Cc1cccc(N2C(=O)CC[C@H]2COc2cccc(O)c2C=O)c1 [Compound 5, 2-{[(2S)-1-(3-formylphenyl)-5-oxopyrrolidin-2-yl]methoxy}-6-hydroxybenzaldehyde] | 79% |
| O=Cc1ccccc1C(=O)N1CCOC[C@H]1COc1cccc(O)c1C=O [Compound 36, 2-{[(3S)-4-(2-formylbenzoyl)morpholin-3-yl]methoxy}-6-hydroxybenzaldehyde] | 77% |
| O=Cc1c(O)cccc1OC[C@@H]1COCCN1C(=O)c1cccc(O)c1C=O [Compound 4, (S)-2-((4-(2-formyl-3-hydroxybenzoyl)morpholin-3-yl)methoxy)-6-hydroxybenzaldehyde] | 30.9% |
| O=Cc1ccc(C(=O)N2CCCC[C@H]2COc2cccc(O)c2C=O)cc1 [Compound 13, 2-{[(2S)-1-(4-formylbenzoyl)piperidin-2-yl]methoxy}-6-hydroxybenzaldehyde] | 45.4% |

Molecular target: Purified hemoglobin (Homo sapiens, UniProt P69905)
Sequence (P69905 2-142 limits assumed): as the sequence (P69905 2-142 limits assumed) above
Sequence (P68871 2-147 partner limits assumed): as the sequence (P68871 2-147 partner limits assumed) above
Assay: Hemoglobin assay: oxygen equilibrium curves with purified hemoglobin, change in p50
Assay type: biochemical
Conditions: purified hemoglobin 25 μM, compound 25 μM, 1 h at 37° C.
Experimental: Hemoglobin assay: Oxygen equilibrium curves (OECs) were collected as described above. Purified hemoglobin (25 μM) was incubated for 1 h at 37° C. with the indicated compounds (30 μM for compounds 6, 7, 8, and 11; 25 μM for compounds 55 to 67 (Enantiomer 1 and Enantiomer 2)) in 5 ml of TES (2-[[1,3-dihydroxy-2-(hydroxymethyl)propan-2-yl]amino]ethanesulfonic acid)/saline buffer prior to measurements. The samples were then oxygenated with compressed air within the Hemox Analyzer and the OECs were collected during deoxygenation as previously described. p50 values were obtained using a non-linear regression analysis, and Δp50(%) was calculated as described above.

| Structure (SMILES) | Delta-p50 (%) |
| --- | --- |
| O=Cc1c(O)cccc1CN1C(=O)CCCC1COc1cccc(O)c1C=O (racemic) [Compound 66, 2-((1-(2-formyl-3-hydroxybenzyl)-6-oxopiperidin-2-yl)methoxy)-6-hydroxybenzaldehyde] | 71% |
| O=Cc1c(O)cccc1OCC1CSCCN1C(=O)c1cccc(O)c1C=O (single isomer, unassigned) [67 (Enantiomer 2), 2-((4-(2-formyl-3-hydroxybenzoyl)thiomorpholin-3-yl)methoxy)-6-hydroxybenzaldehyde] | 69.3% |
| O=Cc1c(O)cccc1OC[C@@H]1CCCN(C(=O)Oc2cccc(O)c2C=O)C1 [Compound 63, 2-formyl-3-hydroxyphenyl (3R)-3-(2-formyl-3-hydroxyphenoxymethyl)piperidine-1-carboxylate] | 70% |
